pEC50: −log10 of the molar value. Converted amounts (≈) assume the structure as drawn. *1 amine or outer side, *2 acyl side, *3 side chain or, on linkers, in order; H or OH if unused. Where a SMILES comes first, the peptide text is derived from it. Side-chain parts run from the residue outwards. [ ]: non-standard residue; d: D form. The star is where a group is joined. γGlu = O=C(O)[C@H](CCC(=O)[*:2])N[*:1]; Palmitoyl = CCCCCCCCCCCCCCCC(=O)*; GABA = NCCCC(=O)O
Key:
[1] = physchem; assay type: physicochemical
Method: Prior to the testing of solubility and stability of a peptide batch, its content was determined. Therefore, two parameters were investigated, its purity (HPLC-UV) and the amount of salt load of the batch (ion chromatography). Since synthesized peptides contain primarily trifluoracetate anions, only anion chromatography was performed. The content was then calculated based on the assumption that peptide-related impurities are detected at the same UV-absorption rate as the target peptide, as well as that cations are not present in the sample.
Therefore, solutions from solid samples were prepared in different buffer systems with a concentration of 1.0 mg/mL compound based on the previously determined content. HPLC-UV was performed after 2 h of gentle agitation from the supernatant, which was obtained by 20 min of centrifugation at 4000 rpm. […] This analysis also served as t0 for the stability testing.
Instrument: Agilent 1100, column: X-Bridge C18 3.5 μm 2.1×150 mm (Waters), eluent: A: H20+500 ppm TFA/B: Methanol, flow: 0.55 ml/min, gradient: 0-5 min: 10-60% B; 5-15 min: 60-99% B; detection: 214 nm.

[2] = molecular target: T1, human GLP-1 receptor (hGLP-1 R) (Homo sapiens, UniProt P43220); assay: cAMP response (HTRF) of HEK-293 cells stably expressing human GLP-1 receptor; assay type: cell-based; details: HEK-293 cells expressing human GLP-1 receptor, cAMP formation
T1 construct: expressed in transfected cells; host or cells: HEK-293
Summary of the method: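 Detached HEK-293 cells stably expressing the receptor were suspended in HBSS with 20 mM HEPES, 0.1% BSA and 2 mM IBMX. Test compound was added for 30 min at room temperature, and cellular cAMP was quantified by HTRF.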

T1 sequence (P43220 24-463): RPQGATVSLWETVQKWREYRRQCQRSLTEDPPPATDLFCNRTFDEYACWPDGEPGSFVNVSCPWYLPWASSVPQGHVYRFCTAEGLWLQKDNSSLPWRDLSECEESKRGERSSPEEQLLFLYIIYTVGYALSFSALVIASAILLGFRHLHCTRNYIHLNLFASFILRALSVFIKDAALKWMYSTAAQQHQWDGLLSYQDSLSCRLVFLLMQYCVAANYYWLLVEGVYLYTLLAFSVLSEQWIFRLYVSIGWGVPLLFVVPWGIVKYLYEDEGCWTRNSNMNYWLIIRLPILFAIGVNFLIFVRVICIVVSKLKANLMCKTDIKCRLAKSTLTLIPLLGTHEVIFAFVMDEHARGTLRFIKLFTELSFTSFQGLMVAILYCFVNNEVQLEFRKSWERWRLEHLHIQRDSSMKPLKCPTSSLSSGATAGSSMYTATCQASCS

| Structure (SMILES) | solubility at 2 h ([1]; pH 4.5) [µg/mL] | solubility at 2 h ([1]; pH 7.4) [µg/mL] | pEC50 [2] |
| --- | --- | --- | --- |
| CCCCCCCCCCCCCCCC(=O)N[C@@H](CCC(=O)NCCCC[C@H](NC(=O)[C@H](CO)NC(=O)[C@@H]1CCCN1C(=O)[C@@H]1CCCN1C(=O)[C@@H]1CCCN1C(=O)[C@H](C)NC(=O)CNC(=O)[C@H](CO)NC(=O)[C@H](CO)NC(=O)[C@@H]1CCCN1C(=O)CNC(=O)CNC(=O)[C@H](C)NC(=O)[C@H](CCCCN)NC(=O)[C@H](CC(C)C)NC(=O)[C@H](Cc1c[nH]c2ccccc12)NC(=O)[C@H](CCC(=O)O)NC(=O)[C@@H](NC(=O)[C@H](Cc1ccccc1)NC(=O)[C@H](CC(=O)O)NC(=O)[C@H](CCC(N)=O)NC(=O)[C@H](C)NC(=O)[C@H](CCCNC(=N)N)NC(=O)[C@H](CCCNC(=N)N)NC(=O)[C@H](CO)NC(=O)[C@H](CC(=O)O)NC(=O)[C@H](CCSC)NC(=O)[C@H](CCC(N)=O)NC(=O)[C@H](CCCCN)NC(=O)[C@H](CO)NC(=O)[C@H](CC(C)C)NC(=O)[C@H](CC(=O)O)NC(=O)[C@H](CO)NC(=O)[C@@H](NC(=O)[C@H](Cc1ccccc1)NC(=O)[C@@H](NC(=O)CNC(=O)[C@H](CCC(N)=O)NC(=O)[C@@H](CO)NC(=O)[C@@H](N)Cc1c[nH]cn1)[C@@H](C)O)[C@@H](C)O)[C@@H](C)CC)C(N)=O)C(=O)O [(60)] (H-H[dS]QGTFTSDLSKQMDSRRAQDFIEWLKAGGPSSGAPPPSK([γGlu-Palmitoyl])-NH2) | > 1000 | > 1000 | – |
| CCCCCCCCCCCCCCCC(=O)N[C@@H](CCC(=O)NCCCC[C@H](NC(=O)[C@H](CO)NC(=O)[C@@H]1CCCN1C(=O)[C@@H]1CCCN1C(=O)[C@@H]1CCCN1C(=O)[C@H](C)NC(=O)CNC(=O)[C@H](CO)NC(=O)[C@H](CO)NC(=O)[C@@H]1CCCN1C(=O)CNC(=O)CNC(=O)[C@H](C)NC(=O)[C@H](CCCCN)NC(=O)[C@H](CC(C)C)NC(=O)[C@H](Cc1c[nH]c2ccccc12)NC(=O)[C@H](CCC(=O)O)NC(=O)[C@@H](NC(=O)[C@H](Cc1ccccc1)NC(=O)[C@H](CC(=O)O)NC(=O)[C@H](CCC(N)=O)NC(=O)[C@H](C)NC(=O)[C@H](CCCNC(=N)N)NC(=O)[C@H](CCCNC(=N)N)NC(=O)[C@H](CO)NC(=O)[C@H](CCC(=O)O)NC(=O)[C@H](CCSC)NC(=O)[C@H](CCC(N)=O)NC(=O)[C@H](CCCCN)NC(=O)[C@H](CO)NC(=O)[C@H](CC(C)C)NC(=O)[C@H](CC(=O)O)NC(=O)[C@H](CO)NC(=O)[C@@H](NC(=O)[C@H](Cc1ccccc1)NC(=O)[C@@H](NC(=O)CNC(=O)[C@H](CCC(N)=O)NC(=O)[C@@H](CO)NC(=O)[C@@H](N)Cc1c[nH]cn1)[C@@H](C)O)[C@@H](C)O)[C@@H](C)CC)C(N)=O)C(=O)O [(63)] (H-H[dS]QGTFTSDLSKQMESRRAQDFIEWLKAGGPSSGAPPPSK([γGlu-Palmitoyl])-NH2) | > 1000 | > 1000 | – |
| CCCCCCCCCCCCCCCC(=O)N[C@@H](CCC(=O)NCCCC[C@H](NC(=O)[C@H](CO)NC(=O)[C@@H]1CCCN1C(=O)[C@@H]1CCCN1C(=O)[C@@H]1CCCN1C(=O)[C@H](C)NC(=O)CNC(=O)[C@H](CO)NC(=O)[C@H](CO)NC(=O)[C@@H]1CCCN1C(=O)CNC(=O)CNC(=O)[C@H](CC(N)=O)NC(=O)[C@H](CCCCN)NC(=O)[C@H](CC(C)C)NC(=O)[C@H](Cc1c[nH]c2ccccc12)NC(=O)[C@H](CCC(=O)O)NC(=O)[C@@H](NC(=O)[C@H](Cc1ccccc1)NC(=O)[C@H](CC(=O)O)NC(=O)[C@H](CCCCN)NC(=O)[C@H](C)NC(=O)[C@H](CCCNC(=N)N)NC(=O)[C@H](CCCNC(=N)N)NC(=O)[C@H](CCC(=O)O)NC(=O)[C@H](CC(=O)O)NC(=O)[C@H](CCSC)NC(=O)[C@H](CCC(N)=O)NC(=O)[C@H](CCCCN)NC(=O)[C@H](CO)NC(=O)[C@H](CC(C)C)NC(=O)[C@H](CC(=O)O)NC(=O)[C@H](CO)NC(=O)[C@@H](NC(=O)[C@H](Cc1ccccc1)NC(=O)[C@@H](NC(=O)CNC(=O)[C@H](CCC(N)=O)NC(=O)[C@@H](CO)NC(=O)[C@@H](N)Cc1c[nH]cn1)[C@@H](C)O)[C@@H](C)O)[C@@H](C)CC)C(N)=O)C(=O)O [(70)] (H-H[dS]QGTFTSDLSKQMDERRAKDFIEWLKNGGPSSGAPPPSK([γGlu-Palmitoyl])-NH2) | > 1000 | > 1000 | – |
| CCCCCCCCCCCCCCCC(=O)N[C@@H](CCC(=O)NCCCC[C@H](NC(=O)[C@H](CO)NC(=O)[C@@H]1CCCN1C(=O)[C@@H]1CCCN1C(=O)[C@@H]1CCCN1C(=O)[C@H](C)NC(=O)CNC(=O)[C@H](CO)NC(=O)[C@H](CO)NC(=O)[C@@H]1CCCN1C(=O)CNC(=O)CNC(=O)[C@H](CCCNC(=N)N)NC(=O)[C@H](CCCCN)NC(=O)[C@H](CC(C)C)NC(=O)[C@H](Cc1c[nH]c2ccccc12)NC(=O)[C@H](CCC(=O)O)NC(=O)[C@@H](NC(=O)[C@H](Cc1ccccc1)NC(=O)[C@H](CC(=O)O)NC(=O)[C@H](CCC(N)=O)NC(=O)[C@H](C)NC(=O)[C@H](CCCNC(=N)N)NC(=O)[C@H](CCCNC(=N)N)NC(=O)[C@H](CO)NC(=O)[C@H](CCC(=O)O)NC(=O)[C@H](CCSC)NC(=O)[C@H](CCC(N)=O)NC(=O)[C@H](CCCCN)NC(=O)[C@H](CO)NC(=O)[C@H](CC(C)C)NC(=O)[C@H](CC(=O)O)NC(=O)[C@H](CO)NC(=O)[C@@H](NC(=O)[C@H](Cc1ccccc1)NC(=O)[C@@H](NC(=O)CNC(=O)[C@H](CCC(N)=O)NC(=O)[C@@H](CO)NC(=O)[C@@H](N)Cc1c[nH]cn1)[C@@H](C)O)[C@@H](C)O)[C@@H](C)CC)C(N)=O)C(=O)O [(75)] (H-H[dS]QGTFTSDLSKQMESRRAQDFIEWLKRGGPSSGAPPPSK([γGlu-Palmitoyl])-NH2) | > 1000 | > 1000 | 11.34 |
| CCCCCCCCCCCCCCCC(=O)N[C@@H](CCC(=O)NCCCC[C@H](NC(=O)[C@H](CO)NC(=O)[C@@H]1CCCN1C(=O)[C@@H]1CCCN1C(=O)[C@@H]1CCCN1C(=O)[C@H](C)NC(=O)CNC(=O)[C@H](CO)NC(=O)[C@H](CO)NC(=O)[C@@H]1CCCN1C(=O)CNC(=O)[C@@H](C)NC(=O)[C@H](CCCNC(=N)N)NC(=O)[C@H](CCCCN)NC(=O)[C@H](CC(C)C)NC(=O)[C@H](Cc1c[nH]c2ccccc12)NC(=O)[C@H](CCC(=O)O)NC(=O)[C@@H](NC(=O)[C@H](Cc1ccccc1)NC(=O)[C@H](CC(=O)O)NC(=O)[C@H](CCC(N)=O)NC(=O)[C@H](C)NC(=O)[C@H](CCCNC(=N)N)NC(=O)[C@H](CCCNC(=N)N)NC(=O)[C@H](CO)NC(=O)[C@H](CCC(=O)O)NC(=O)[C@H](CCSC)NC(=O)[C@H](CCC(N)=O)NC(=O)[C@H](CCCCN)NC(=O)[C@H](CO)NC(=O)[C@H](CC(C)C)NC(=O)[C@H](CC(=O)O)NC(=O)[C@H](CO)NC(=O)[C@@H](NC(=O)[C@H](Cc1ccccc1)NC(=O)[C@@H](NC(=O)CNC(=O)[C@H](CCC(N)=O)NC(=O)[C@@H](CO)NC(=O)[C@@H](N)Cc1c[nH]cn1)[C@@H](C)O)[C@@H](C)O)[C@@H](C)CC)C(N)=O)C(=O)O [(76)] (H-H[dS]QGTFTSDLSKQMESRRAQDFIEWLKR[dA]GPSSGAPPPSK([γGlu-Palmitoyl])-NH2) | 952 (≈ 199 µM) | > 1000 | – |
| CCCCCCCCCCCCCCCC(=O)N[C@@H](CCC(=O)NCCCC[C@H](NC(=O)[C@H](CO)NC(=O)[C@@H]1CCCN1C(=O)[C@@H]1CCCN1C(=O)[C@@H]1CCCN1C(=O)[C@H](C)NC(=O)CNC(=O)[C@H](CO)NC(=O)[C@H](CO)NC(=O)[C@@H]1CCCN1C(=O)CNC(=O)CNC(=O)[C@H](CCCCN)NC(=O)[C@H](CCCCN)NC(=O)[C@H](CC(C)C)NC(=O)[C@H](Cc1c[nH]c2ccccc12)NC(=O)[C@H](CCC(=O)O)NC(=O)[C@@H](NC(=O)[C@H](Cc1ccccc1)NC(=O)[C@H](CC(=O)O)NC(=O)[C@H](CCC(N)=O)NC(=O)[C@H](C)NC(=O)[C@H](CCCNC(=N)N)NC(=O)[C@H](CCCNC(=N)N)NC(=O)[C@H](CO)NC(=O)[C@H](CCC(=O)O)NC(=O)[C@H](CCSC)NC(=O)[C@H](CCC(N)=O)NC(=O)[C@H](CCCCN)NC(=O)[C@H](CO)NC(=O)[C@H](CC(C)C)NC(=O)[C@H](CC(=O)O)NC(=O)[C@H](CO)NC(=O)[C@@H](NC(=O)[C@H](Cc1ccccc1)NC(=O)[C@@H](NC(=O)CNC(=O)[C@H](CCC(N)=O)NC(=O)[C@@H](CO)NC(=O)[C@@H](N)Cc1c[nH]cn1)[C@@H](C)O)[C@@H](C)O)[C@@H](C)CC)C(N)=O)C(=O)O [(77)] (H-H[dS]QGTFTSDLSKQMESRRAQDFIEWLKKGGPSSGAPPPSK([γGlu-Palmitoyl])-NH2) | > 1000 | > 1000 | – |
| CCCCCCCCCCCCCCCC(=O)NCCCC(=O)NCCCC[C@H](NC(=O)[C@H](CO)NC(=O)[C@@H]1CCCN1C(=O)[C@@H]1CCCN1C(=O)[C@@H]1CCCN1C(=O)[C@H](C)NC(=O)CNC(=O)[C@H](CO)NC(=O)[C@H](CO)NC(=O)[C@@H]1CCCN1C(=O)CNC(=O)CNC(=O)[C@H](CO)NC(=O)[C@H](CCCCN)NC(=O)[C@H](CC(C)C)NC(=O)[C@H](Cc1c[nH]c2ccccc12)NC(=O)[C@H](CCC(=O)O)NC(=O)[C@@H](NC(=O)[C@H](Cc1ccccc1)NC(=O)[C@H](CC(=O)O)NC(=O)[C@H](CCC(N)=O)NC(=O)[C@H](C)NC(=O)[C@H](CCCNC(=N)N)NC(=O)[C@H](CCCNC(=N)N)NC(=O)[C@H](CO)NC(=O)[C@H](CCC(=O)O)NC(=O)[C@H](CCSC)NC(=O)[C@H](CCC(N)=O)NC(=O)[C@H](CCCCN)NC(=O)[C@H](CO)NC(=O)[C@H](CC(C)C)NC(=O)[C@H](CC(=O)O)NC(=O)[C@H](CO)NC(=O)[C@@H](NC(=O)[C@H](Cc1ccccc1)NC(=O)[C@@H](NC(=O)CNC(=O)[C@H](CCC(N)=O)NC(=O)[C@@H](CO)NC(=O)[C@@H](N)Cc1c[nH]cn1)[C@@H](C)O)[C@@H](C)O)[C@@H](C)CC)C(N)=O [(125)] (H-H[dS]QGTFTSDLSKQMESRRAQDFIEWLKSGGPSSGAPPPSK([GABA-Palmitoyl])-NH2) | – | – | 10.97 |
